This is an account of results in ChEMBL document CHEMBL3508140 (2016).

A short description of data set [1]: Terminal half-life of 4-dem-daunorubicin following intravenous 4-dem-daunorubicin at 1.0 mg.Kg-1 dose in dog. The following applies: Beagle, plasma. The class given is ADME, organism-based, Canis lupus familiaris. On the set-up: dose 1 mg.Kg-1, dosed compound id 2.46809e+06, dosed compound name Idarubicin, route intravenous.
Data set [2] can be described thus: Volume of distribution of 4-dem-daunorubicin following intravenous 4-dem-daunorubicin at 1.0 mg.Kg-1 dose in dog. Type of data set: ADME, organism-based, Canis lupus familiaris. On the set-up: dose 1 mg.Kg-1, dosed compound id 2.46809e+06, dosed compound name Idarubicin, route intravenous. Particulars: Beagle, plasma.
The nature of data set [3]: Plasma clearance of 4-dem-daunorubicin following intravenous 4-dem-daunorubicin at 1.0 mg.Kg-1 dose in dog. Type of data set: ADME, organism-based, Canis lupus familiaris. Set-up: dose 1 mg.Kg-1, dosed compound id 2.46809e+06, dosed compound name Idarubicin, route intravenous. Particulars: Beagle, read-out: Clp.
Data set [4] is described as follows: Mortality occurred following intravenous idarubicin at 0.6 mg.Kg-1 per week in rat. Type of data set: toxicity, organism-based, SD. On the set-up: dose 0.6 mg.Kg-1, dosed compound id 2.46809e+06, dosed compound name Idarubicin, dose level Intermediate, gender Mixed, regimen Once per week, route intravenous, sampling time 13 Week, study doses 0/0.3/0.6/1 mg.Kg-1. Particulars: in vivo.

The nature of data set [5]: (§1) Decrease in leukocytes observed following intravenous idarubicin at 0.3 mg.Kg-1 per week in rat. On the set-up: dose 0.3 mg.Kg-1, dosed compound id 2.46809e+06, dosed compound name Idarubicin, dose level Low, gender Mixed, regimen Once per week, route intravenous, sampling time 8 Week, study doses 0/0.3/0.6/1 mg.Kg-1. The following applies: in vivo. Type of data set: toxicity, organism-based, SD, Blood.

Data set [6] is described as follows: (§2) Decrease in leukocytes observed following intravenous idarubicin at 0.6 mg.Kg-1 per week in rat. The class given is toxicity, organism-based, SD, Blood. Set-up: dose 0.6 mg.Kg-1, dosed compound id 2.46809e+06, dosed compound name Idarubicin, dose level Intermediate, gender Mixed, regimen Once per week, route intravenous, sampling time 4 Week, study doses 0/0.3/0.6/1 mg.Kg-1. Particulars: in vivo.

Data set [7] in a line: Increase in serum triglycerides level following intravenous idarubicin at 0.3 mg.Kg-1 per week in rat. The class given is toxicity, organism-based, SD. Set-up: dose 0.3 mg.Kg-1, dosed compound id 2.46809e+06, dosed compound name Idarubicin, dose level Low, gender Mixed, regimen Once per week, route intravenous, sampling time 8-22 Week, study doses 0/0.3/0.6/1 mg.Kg-1. Particulars: in vivo.

The nature of data set [8]: Increase in serum triglycerides level following intravenous idarubicin at 0.6 mg.Kg-1 per week in rat. Particulars: in vivo. Set-up: dose 0.6 mg.Kg-1, dosed compound id 2.46809e+06, dosed compound name Idarubicin, dose level Intermediate, gender Mixed, regimen Once per week, route intravenous, sampling time 8-22 Week, study doses 0/0.3/0.6/1 mg.Kg-1. The class given is toxicity, organism-based, SD.

Data set [9] can be described thus: Increase in serum total cholesterol level following intravenous idarubicin at 0.3 mg.Kg-1 per week in rat. The class given is toxicity, organism-based, SD. Set-up: dose 0.3 mg.Kg-1, dosed compound id 2.46809e+06, dosed compound name Idarubicin, dose level Low, gender Mixed, regimen Once per week, route intravenous, sampling time 8-22 Week, study doses 0/0.3/0.6/1 mg.Kg-1. Particulars: in vivo.

The nature of data set [10]: Increase in serum total cholesterol level following intravenous idarubicin at 0.6 mg.Kg-1 per week in rat. The class given is toxicity, organism-based, SD. On the set-up: dose 0.6 mg.Kg-1, dosed compound id 2.46809e+06, dosed compound name Idarubicin, dose level Intermediate, gender Mixed, regimen Once per week, route intravenous, sampling time 8-22 Week, study doses 0/0.3/0.6/1 mg.Kg-1. Particulars: in vivo.

Data set [11] is described as follows: Increase in serum phospholipid level following intravenous idarubicin at 0.3 mg.Kg-1 per week in rat. Type of data set: toxicity, organism-based, SD. On the set-up: dose 0.3 mg.Kg-1, dosed compound id 2.46809e+06, dosed compound name Idarubicin, dose level Low, gender Mixed, regimen Once per week, route intravenous, sampling time 8-22 Week, study doses 0/0.3/0.6/1 mg.Kg-1. Particulars: in vivo.

Data set [12] is described as follows: Increase in serum phospholipid level following intravenous idarubicin at 0.6 mg.Kg-1 per week in rat. On the set-up: dose 0.6 mg.Kg-1, dosed compound id 2.46809e+06, dosed compound name Idarubicin, dose level Intermediate, gender Mixed, regimen Once per week, route intravenous, sampling time 8-22 Week, study doses 0/0.3/0.6/1 mg.Kg-1. The class given is toxicity, organism-based, SD. The following applies: in vivo.

A short description of data set [13]: Incidence of persistent proteinuria following intravenous idarubicin at 0.3 mg.Kg-1 per week in rat. The class given is toxicity, organism-based, SD. On the set-up: dose 0.3 mg.Kg-1, dosed compound id 2.46809e+06, dosed compound name Idarubicin, dose level Low, gender Mixed, regimen Once per week, route intravenous, sampling time 36 Week, study doses 0/0.3/0.6/1 mg.Kg-1. Particulars: in vivo.

Data set [14] in a line: Incidence of persistent proteinuria following intravenous idarubicin at 0.6 mg.Kg-1 per week in rat. The following applies: in vivo. The class given is toxicity, organism-based, SD. Set-up: dose 0.6 mg.Kg-1, dosed compound id 2.46809e+06, dosed compound name Idarubicin, dose level Intermediate, gender Mixed, regimen Once per week, route intravenous, sampling time 36 Week, study doses 0/0.3/0.6/1 mg.Kg-1.

A short description of data set [15]: Incidence of leukocyturia following intravenous idarubicin at 0.3 mg.Kg-1 per week in rat. The class given is toxicity, organism-based, SD. Set-up: dose 0.3 mg.Kg-1, dosed compound id 2.46809e+06, dosed compound name Idarubicin, dose level Low, gender Mixed, regimen Once per week, route intravenous, sampling time 36 Week, study doses 0/0.3/0.6/1 mg.Kg-1. The following applies: in vivo.

A short description of data set [16]: Incidence of leukocyturia following intravenous idarubicin at 0.6 mg.Kg-1 per week in rat. On the set-up: dose 0.6 mg.Kg-1, dosed compound id 2.46809e+06, dosed compound name Idarubicin, dose level Intermediate, gender Mixed, regimen Once per week, route intravenous, sampling time 36 Week, study doses 0/0.3/0.6/1 mg.Kg-1. Particulars: in vivo. Type of data set: toxicity, organism-based, SD.

Data set [17] can be described thus: Decrease in albumin due to persistent proteinuria following intravenous idarubicin at 0.3 mg.Kg-1 per week in rat. Type of data set: toxicity, organism-based, SD, Serum. On the set-up: dose 0.3 mg.Kg-1, dosed compound id 2.46809e+06, dosed compound name Idarubicin, dose level Low, gender Mixed, regimen Once per week, route intravenous, sampling time 36 Week, study doses 0/0.3/0.6/1 mg.Kg-1. Particulars: in vivo.

Data set [18] is described as follows: Decrease in albumin due to persistent proteinuria following intravenous idarubicin at 0.6 mg.Kg-1 per week in rat. Set-up: dose 0.6 mg.Kg-1, dosed compound id 2.46809e+06, dosed compound name Idarubicin, dose level Intermediate, gender Mixed, regimen Once per week, route intravenous, sampling time 36 Week, study doses 0/0.3/0.6/1 mg.Kg-1. Type of data set: toxicity, organism-based, SD, Serum. Particulars: in vivo.

The nature of data set [19]: as §1. The class given is toxicity, organism-based, SD, Blood. Set-up: dosed compound id 2.46809e+06, dosed compound name Idarubicin, dose level Low, gender Mixed, route intravenous, sampling time 4 Week, study doses 0/0.3/0.6/1 mg.Kg-1. Particulars: in vivo.
The nature of data set [20]: as §2. Type of data set: toxicity, organism-based, SD, Blood. Particulars: in vivo. Set-up: dosed compound id 2.46809e+06, dosed compound name Idarubicin, dose level Intermediate, gender Mixed, route intravenous, sampling time 8 Week, study doses 0/0.3/0.6/1 mg.Kg-1.

`CC(=O)[C@]1(O)Cc2c(O)c3c(c(O)c2[C@@H](O[C@H]2C[C@H](N)[C@H](O)[C@H](C)O2)C1)C(=O)c1ccccc1C3=O` [IDARUBICIN] returned a half-life in data set [1] of 6 min. In data set [2], this molecule registered a Vd of 34.5 L/kg. Moreover, the clearance in data set [3] amounted to 711 mL/min. The Mortality result in data set [4] is recorded as “OUTCOME = Observed, N_AFFECTED = 12”. For the same molecule, the WBC_CHANGE in data set [5] turned out to be 35%; in [6], 50%; in data set [19], 35%; in [20] it was 55%. In addition, the TRIG_CHANGE entry in [7] and in data set [8] was “OUTCOME = Increased” throughout. The CHOL_CHANGE entry in [9] and in [10] was “OUTCOME = Increased” in each case. The PHOSLPD_CHANGE result in data set [11] and in data set [12] was “OUTCOME = Increased” each time. Besides, the Incidence result in data set [13], in data set [14], in data set [15] and in [16] was “OUTCOME = Observed” throughout. Further, the ALB_CHANGE entry in data set [17] and in data set [18] was “OUTCOME = Decreased” in each case.

For orientation: half-life means the time in which the quantity being followed falls by half. As a reminder, the Vd is a proportionality between amount in the body and measured concentration, not a real space.
